Reference: patent US12643887B2, “Heterocyclic derivatives with cardiomyocyte proliferation activity for treatment of heart diseases” (Tongji University, priority 2019, dated 2026)
Like-named read-outs stand apart in the source and are kept apart here.

Columns and labels:
human HIPK2 = target: T1, human HIPK2 (Homo sapiens, UniProt Q9H2X6); assay: HIPK2 enzyme assay (ADP-Glo); type: biochemical
T1 construct: Recombinant human HIPK2 (1-640); GST (N); purchased SignalChem H04-11BG; host or cells: Sf9 insect cells
T1 sequence (Q9H2X6 1-640): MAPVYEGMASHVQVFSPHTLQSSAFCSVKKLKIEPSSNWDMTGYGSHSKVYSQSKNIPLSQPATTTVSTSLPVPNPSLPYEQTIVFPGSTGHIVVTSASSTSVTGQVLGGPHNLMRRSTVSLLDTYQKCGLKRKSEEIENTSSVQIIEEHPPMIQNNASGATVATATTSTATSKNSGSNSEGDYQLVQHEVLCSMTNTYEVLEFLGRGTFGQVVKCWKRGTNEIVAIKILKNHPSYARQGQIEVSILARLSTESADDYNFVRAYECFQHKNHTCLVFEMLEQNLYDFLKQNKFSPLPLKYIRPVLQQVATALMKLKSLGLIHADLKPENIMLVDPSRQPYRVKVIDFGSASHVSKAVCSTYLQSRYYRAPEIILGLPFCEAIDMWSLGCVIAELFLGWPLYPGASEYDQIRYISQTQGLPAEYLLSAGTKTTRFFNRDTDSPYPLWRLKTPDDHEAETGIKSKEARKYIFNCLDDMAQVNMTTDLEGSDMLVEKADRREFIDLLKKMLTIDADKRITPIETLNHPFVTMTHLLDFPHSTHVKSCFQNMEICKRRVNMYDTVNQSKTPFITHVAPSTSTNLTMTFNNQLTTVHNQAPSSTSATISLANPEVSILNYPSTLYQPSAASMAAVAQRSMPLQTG
Method in brief: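 GST-tagged HIPK2 (1-640) from Sf9, 1 nM, preincubated 30 min at 25° C with inhibitor in 40 mM Tris pH 7.5, 20 mM MgCl2. Reaction ran 90 min at 25° C with GST-MBP substrate at 0.05 mg/ml and 5 μM ATP. ADP-Glo luminescence; IC50 by four-parameter logistic fit.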

[1] = test system: Neonatal Rat Ventricular Myocytes (NRVMs); assay: Myocyte proliferation assay (EdU assay) in neonatal rat ventricular myocytes; type: cell-based; details: growth relative to blank myocyte growth without compound added; for Avg 1 uM (average myocyte proliferation): compound 1 uM; for Avg 3 uM (average myocyte proliferation): compound 3 uM; for Avg 10 uM (average myocyte proliferation): compound 10 uM
Method in brief: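 Neonatal rat ventricular myocytes, fibroblast-depleted by preplating, serum-starved 24 h (2% FBS/ITS), then given compound at 10, 3 or 1 uM in 6% FBS medium for 36 h before 12 h EdU labelling. Fixed cells stained for EdU (Click-iT), ab8295 primary antibody and DAPI; quantified by high-content confocal imaging.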

[2] = ADP-Glo, ATP 5 μM, read-out: HIPK2 IC50

| IC50 (human HIPK2; [2]) [nM] | SMILES | IC50 (human HIPK2) [nM] | Avg 1 uM (average myocyte proliferation) [1] | Avg 3 uM (average myocyte proliferation) [1] | Avg 10 uM (average myocyte proliferation) [1] |
| --- | --- | --- | --- | --- | --- |
| < 100 | Cc1nc2ccc(NC3=N/C(=C\c4ccc5ncsc5c4)C(=O)N3)cc2s1 [Example 90, (Z)-5-(benzo[d]thiazol-6-ylmethylene)-2-((2-methylbenzo[d]thiazol-6-yl)amino)-3,5-dihydro-4H-imidazol-4-one] |  | ** (10%-50%) | ** (10%-50%) |  |
| 1000 to 10000 | CN(C1=N/C(=C\c2ccc3ncsc3c2)C(=O)N1)c1ccc2c(c1)ncn2C [Example 86, (Z)-5-(benzo[d]thiazol-6-ylmethylene)-2-(methyl(1-methyl-1H-benzo[d]imidazol-5-yl)amino)-3,5-dihydro-4H-imidazol-4-one] |  | ** (10%-50%) | ** (10%-50%) |  |
| 100 to 1000 | Cn1cnc2ccc(NC3=N/C(=C\c4ccc5ncsc5c4)C(=O)N3)cc21 [Example 93, (Z)-5-(benzo[d]thiazol-6-ylmethylene)-2-((1-methyl-1H-benzo[d]imidazol-6-yl)amino)-3,5-dihydro-4H-imidazol-4-one] |  | * (<10% growth relative to blank myocyte growth without compound added.) | ** (10%-50%) |  |
| > 10000 | O=C1NC(Nc2ccc3ncsc3c2)=N/C1=C\c1ccc2cn[nH]c2c1 [Example 95, (Z)-5-((1H-indazol-6-yl)methylene)-2-(benzo[d]thiazol-6-ylamino)-3,5-dihydro-4H-imidazol-4-one] |  | * (<10% growth relative to blank myocyte growth without compound added.) | * (<10% growth relative to blank myocyte growth without compound added.) |  |
| < 100 | O=C1NC(Nc2ccc3nc[nH]c3c2)=N/C1=C\c1ccc2ncsc2c1 [Example 97, (Z)-2-((1H-benzo[d]imidazol-6-yl)amino)-5-(benzo[d]thiazol-6-ylmethylene)-3,5-dihydro-4H-imidazol-4-one] |  | * (<10% growth relative to blank myocyte growth without compound added.) | * (<10% growth relative to blank myocyte growth without compound added.) |  |
| > 10000 | O=C1NC(Nc2ccc3ncsc3c2)=N/C1=C\c1ccc2nccnc2c1 [Example 94, (Z)-2-(benzo[d]thiazol-6-ylamino)-5-(quinoxalin-6-ylmethylene)-3,5-dihydro-4H-imidazol-4-one] |  | * (<10% growth relative to blank myocyte growth without compound added.) | * (<10% growth relative to blank myocyte growth without compound added.) |  |

Continued, compound first:

| SMILES | IC50 (human HIPK2; [2]) [nM] | IC50 (human HIPK2) [nM] | Avg 1 uM (average myocyte proliferation) [1] | Avg 3 uM (average myocyte proliferation) [1] | Avg 10 uM (average myocyte proliferation) [1] |
| --- | --- | --- | --- | --- | --- |
| CC(=O)N(C1=N/C(=C\c2ccc3c(c2)OCO3)C(=O)N1)c1ccccc1 [Example 5, (Z)—N-(4-(benzo[d][1,3]dioxol-5-ylmethylene)-5-oxo-4,5-dihydro-1H-imidazol-2-yl)-N-phenylacetamide] |  | 1000 to 10000 | ** (10%-50%) | ** (10%-50%) | *** (>50%) |
| O=C1NC(Nc2ccc3sccc3c2)=N/C1=C\c1ccc2ncsc2c1 [Example 101, (Z)-2-(benzo[b]thiophen-5-ylamino)-5-(benzo[d]thiazol-6-ylmethylene)-3,5-dihydro-4H-imidazol-4-one] | > 10000 |  | ** (10%-50%) | * (<10% growth relative to blank myocyte growth without compound added.) |  |
| O=C1NC(N(Cc2ccccc2)c2ccc3ncsc3c2)=N/C1=C\c1ccc2ncsc2c1 [Example 99, (Z)-2-(benzo[d]thiazol-6-yl(benzyl)amino)-5-(benzo[d]thiazol-6-ylmethylene)-3,5-dihydro-4H-imidazol-4-one] | 100 to 1000 |  | ** (10%-50%) | * (<10% growth relative to blank myocyte growth without compound added.) |  |
| CC(=O)N(C1=N/C(=C\c2ccc3ncsc3c2)C(=O)N1)c1ccc2ncsc2c1 [Example 91, (Z)—N-(benzo[d]thiazol-6-yl)-N-(4-(benzo[d]thiazol-6-ylmethylene)-5-oxo-4,5-dihydro-1H-imidazol-2-yl)acetamide] | < 100 |  | * (<10% growth relative to blank myocyte growth without compound added.) | * (<10% growth relative to blank myocyte growth without compound added.) |  |
| O=C1NC(Nc2ccc3ncsc3c2)=N/C1=C\c1cncs1 [Example 92, (Z)-2-(benzo[d]thiazol-6-ylamino)-5-(thiazol-5-ylmethylene)-3,5-dihydro-4H-imidazol-4-one] | 100 to 1000 |  | * (<10% growth relative to blank myocyte growth without compound added.) | * (<10% growth relative to blank myocyte growth without compound added.) |  |
| CN(C1=N/C(=C\c2ccc3[nH]ccc3c2)C(=O)N1)c1ccc2ncsc2c1 [Example 87, (Z)-5-((1H-indol-5-yl)methylene)-2-(benzo[d]thiazol-6-yl(methyl)amino)-3,5-dihydro-4H-imidazol-4-one] | > 10000 |  | ** (10%-50%) | ** (10%-50%) |  |
| CC(C)Nc1nc2ccc(NC3=N/C(=C\c4ccc5ncsc5c4)C(=O)N3)cc2s1 [Example 100, (Z)-5-(benzo[d]thiazol-6-ylmethylene)-2-((2-(isopropylamino)benzo[d]thiazol-6-yl)amino)-3,5-dihydro-4H-imidazol-4-one] | 100 to 1000 |  | ** (10%-50%) | ** (10%-50%) |  |
| O=C1NC(=S)N/C1=C\c1ccc2sccc2c1 [Example 96, (Z)-5-(benzo[b]thiophen-5-ylmethylene)-2-thioxoimidazolidin-4-one] | > 10000 |  | * (<10% growth relative to blank myocyte growth without compound added.) | * (<10% growth relative to blank myocyte growth without compound added.) |  |
| Nc1ccc(NC2=N/C(=C\c3ccc4ncsc4c3)C(=O)N2)cc1 [Example 98, (Z)-2-((4-aminophenyl)amino)-5-(benzo[d]thiazol-6-ylmethylene)-3,5-dihydro-4H-imidazol-4-one] | 100 to 1000 |  | ** (10%-50%) | ** (10%-50%) |  |
| COCCN(C1=N/C(=C\c2ccc3ncsc3c2)C(=O)N1)c1ccc2ncsc2c1 [Example 89, (Z)-2-(benzo[d]thiazol-6-yl(2-methoxyethyl)amino)-5-(benzo[d]thiazol-6-ylmethylene)-3,5-dihydro-4H-imidazol-4-one] | 100 to 1000 |  | ** (10%-50%) | * (<10% growth relative to blank myocyte growth without compound added.) |  |
| CN(C1=N/C(=C\c2ccc3ncccc3c2)C(=O)N1)c1ccc2ncsc2c1 [Example 85, (Z)-2-(benzo[d]thiazol-6-yl(methyl)amino)-5-(quinolin-6-ylmethylene)-3,5-dihydro-4H-imidazol-4-one] | > 10000 |  | * (<10% growth relative to blank myocyte growth without compound added.) | ** (10%-50%) |  |
| CCN(C1=N/C(=C\c2ccc3c(c2)OCO3)C(=O)N1)c1ccccc1 [Example 4, (Z)-5-(benzo[d][1,3]dioxol-5-ylmethylene)-2-(ethyl(phenyl)amino)-3,5-dihydro-4H-imidazol-4-one] | > 10000 |  | ** (10%-50%) | ** (10%-50%) | ** (10%-50%) |
| CN1C(=O)/C(=C/c2ccc3ncsc3c2)N=C1Nc1ccc2ncsc2c1 [Example 88, (Z)-2-(benzo[d]thiazol-6-ylamino)-5-(benzo[d]thiazol-6-ylmethylene)-3-methyl-3,5-dihydro-4H-imidazol-4-one] | > 10000 |  | * (<10% growth relative to blank myocyte growth without compound added.) | * (<10% growth relative to blank myocyte growth without compound added.) |  |
